Results: US6593365B1, “Diflunisal esters and related compounds” (The University of Queensland, priority 1997, dated 2003)
Entries after “also recorded” stand apart in the source; their conditions may differ.

Experiments:
[1] = test system: platelets (platelet cyclooxygenase acylation); assay: Platelet washing study (ADGS); assay type: cell-based, human; details: platelet-rich plasma pretreated with drug at 37° C.; 200 μM arachidonic acid; before/after two-fold washing
From the text: It is generally accepted that aspirin inhibits platelet cyclooxygenase through an irreversible acetylation process. In separate experiments, the platelet acylation by these O-acyl salicylates was investigated. It is hypothesised that if the acylation were reversible, then the O-acyl moieties might be removed by platelet washing. Consequently, the washed platelets would become susceptible to aggregation by arachidonic acid.
A platelet-washing technique, ADGS (albumin density gradient separation) similar to one used by Spriggs and Alexander (Spriggs, 1960, Nature 188 863), was employed for this purpose. The principle underlying ADGS is simply that of centrifuging platelets into a continuous density gradient produced by mixing the interface between platelet-rich plasma and 40-45% bovine serum albumin. Thereby the platelets are gently sedimented into a zone with a specific gravity equal to their own, and they are protected by the cushion of albumin from disruptive squashing on the hard surface of the centrifuge tube.
Flat-bottomed, polystyrene tubes of 10 mL capacity with stopper were used for platelet washing by ADGS. Pasteur pipettes were siliconised and used for transferring plasma and wash fluid. Stirring rods were made from Pasteur pipettes by heating the tips, forming a right-angle ben approximately 1 cm long and then siliconised. […]

[2] = cited from earlier work
[3] = at 25° C. (Foye 1989); cited from earlier work

Row | Molecule | Platelet response to arachidonic acid after pretreatment (platelet washing study) [1] | solubility ([2]; at 25° C., The Merck Index 1983) | Maximum solubility ([2]; water, 25° C., literature value (Merck Index)) | pKa [3]
1 | CCCCCC(=O)Oc1ccccc1C(=O)O [Compound C6SA, n-hexanoylsalicylic acid] | non-reversibly inhibited; also recorded: still refractory to arachidonic acid |  |  | 
2 | O-acetylsalicylic acid [Compound C2SA, reference compound] | non-reversibly inhibited; also recorded: still refractory to arachidonic acid | 18.5 mM | 18.5 mM | 3.5
